Test results from PMC11506018, “Targeting PARP-1 and DNA Damage Response Defects in Colorectal Cancer Chemotherapy with Established and Novel PARP Inhibitors” (Cancers, 2024).
Read-outs that look alike come from different tables or passages of the source.

How the values were obtained:
[1] = tested on: HCT116 BRCA2−/− cells; experiment: cell viability, resazurin reduction assay, HCT116 BRCA2-/-; conditions: for IC50: read-out: IC50-values HCT116 BRCA2−/−
Description: (§1) To assess the cytotoxicity of newly developed PARP inhibitors, cells were cultivated in translucent 96-well plates overnight and treated with PARP inhibitors or cytostatic drugs for 72 h. For the assessment of synergistic activity, cells were pretreated with the inhibitors for 2 h, before the inhibitor or cytostatic drug was added. Cell viability was assessed by the resazurin reduction assay (RRA) as described previously [41], and fluorescence was measured using a Spark® Multi-well reader (Tecan, Crailsheim, Germany). IC50 values were calculated using GraphPad Prism 9.0 software (GraphPad Software Inc., Boston, MA, USA). To this end, concentrations were transformed into the log scale, plotted against the cell viability and the curve was fitted by nonlinear regression with variable slope, providing the IC50 values.

[2] = tested on: P-glycoprotein; parameters: method as in PMID 24700236; conditions: efflux transporter; cited from earlier work
[3] = molecular target: T1, PARP-1 (Homo sapiens, UniProt P09874); experiment: chemiluminescence-based PARP-1 assay kit (recombinant enzyme); conditions: for IC50: IC50 PARP-1 screening assay kit
Description: Twelve compounds were screened regarding their ability to inhibit PARP-1 enzyme activity in vitro. Therefore, we utilized a chemiluminescence-based PARP-1 assay kit (BPS Bioscience, San Diego, CA, USA) and performed two independent experiments according to the manufacturer’s instructions. Briefly, non-transparent 96-well plates were coated with histones overnight. […] After adding activated DNA and biotinylated NAD^+, the ADP-ribosylation reaction was initiated by the addition of PARP-1 enzyme and incubated at RT for 1 h. Quantification of biotinylated PAR was conducted by using Streptavidin–HRP and subsequent ECL-based detection of chemiluminescence, applying a Spark® multiplate reader (Tecan, Crailsheim, Germany).

[4] = tested on: HCT116 PARP-1+/+ cells; experiment: cell viability, resazurin reduction assay, HCT116 PARP-1+/+; conditions: for IC50: read-out: IC50-values HCT116 PARP1+/+
Description: as §1

[5] = tested on: DLD-1 ATRs/s cells; experiment: cell viability, resazurin reduction assay, DLD-1 ATRs/s; conditions: for cell viability, monotreatment: DLD-1 ATRs/s; for IC50: read-out: IC50-values DLD-1 ATRs/s
Description: (§2) To assess the cytotoxicity of newly developed PARP inhibitors, cells were cultivated in translucent 96-well plates overnight and treated with PARP inhibitors or cytostatic drugs for 72 h. […] Cell viability was assessed by the resazurin reduction assay (RRA) as described previously [41], and fluorescence was measured using a Spark® Multi-well reader (Tecan, Crailsheim, Germany). IC50 values were calculated using GraphPad Prism 9.0 software (GraphPad Software Inc., Boston, MA, USA). To this end, concentrations were transformed into the log scale, plotted against the cell viability and the curve was fitted by nonlinear regression with variable slope, providing the IC50 values.

[6] = tested on: HCT116 PARP-1−/− cells; experiment: cell viability, resazurin reduction assay, HCT116 PARP-1-/-; conditions: for IC50: read-out: IC50-values HCT116 PARP1−/−
Description: as §1

[7] = tested on: Caco-2 cells; experiment: cell viability, resazurin reduction assay, Caco-2; conditions: for cell viability, monotreatment: up to 50 µM; for IC50: read-out: IC50-values Caco-2
Description: as §1

[8] = tested on: human colonic epithelial cells (HCEC); experiment: cell viability, resazurin reduction assay, HCEC; conditions: 72 h; for cell viability, monotreatment: nonmalignant HCEC, up to 50 µM; for IC50: read-out: IC50-values HCEC
Description: as §1

[9] = tested on: DLD-1 WT cells; experiment: cell viability, resazurin reduction assay, DLD-1 WT; conditions: for cell viability, monotreatment: DLD-1 WT; for IC50: read-out: IC50-values DLD-1 WT
Description: as §2

[10] = tested on: γH2AX formation in HCT116 WT cells; experiment: γH2AX Western blot in HCT116 WT cells
Description: Quantification of chromatin-trapped PARP-1 was performed as described elsewhere [42]. Briefly, HCT116 cells were harvested, and pellets were lysed in buffer containing 150 mM KCl, 2.5 mM MgCl2, 50 mM HEPES pH 7.8, 5 mM EDTA pH 8, 3 mM dithiothreitol (DTT), 10% glycerol, 0.5% Triton X-100, and freshly added protease inhibitor cocktail (Roche) for 15 min on ice. The chromatin-bound protein fraction was isolated by centrifugation at 4 °C for 15 min and 16.000× g. After transferring the soluble fraction, the chromatin-containing pellet was washed twice in lysis buffer and sonicated for 3 min. The soluble and chromatin fractions were mixed with self-made 5× Laemmli buffer (200 mM TRIS pH 6.8, 40% glycerol, 8% SDS, 4 % ß-mercaptoethanol, 0.08% Bromphenol Blue) and incubated at 95 °C for 10 min. Samples were then separated by SDS-PAGE followed by Western blot analysis essentially as described previously [43]. For the analysis of γH2AX, cells were directly harvested in 1× Laemmli buffer, incubated at 95 °C for 5 min, and subjected to SDS-PAGE and subsequent Western blot analysis [44]. […] The proteins of interest were detected using a c300 chemiluminescence imager (Azure Biosystems, Dublin, CA, USA). Densitometric image analysis was conducted by applying the software AzureSpot version 2.0.062 (Azure Biosystems, USA). The signal intensity (e.g., PARP-1 or γH2AX) of each lane was quantified and subsequently normalized to the respective loading control as indicated in the figure legends, which was analyzed in each experiment. […]

[11] = tested on: HCT116 WT cells; experiment: cell viability, resazurin reduction assay, HCT116 WT
Description: as §2

[12] = molecular target: T1, PARP-1; experiment: chromatin retention assay (PARP-1 trapping) in Caco-2 cells; conditions: Caco-2, MMS 1 mM 1 h with inhibitor
Description: (§3) Quantification of chromatin-trapped PARP-1 was performed as described elsewhere [42]. Briefly, HCT116 cells were harvested, and pellets were lysed in buffer containing 150 mM KCl, 2.5 mM MgCl2, 50 mM HEPES pH 7.8, 5 mM EDTA pH 8, 3 mM dithiothreitol (DTT), 10% glycerol, 0.5% Triton X-100, and freshly added protease inhibitor cocktail (Roche) for 15 min on ice. The chromatin-bound protein fraction was isolated by centrifugation at 4 °C for 15 min and 16.000× g. After transferring the soluble fraction, the chromatin-containing pellet was washed twice in lysis buffer and sonicated for 3 min. […] The proteins of interest were detected using a c300 chemiluminescence imager (Azure Biosystems, Dublin, CA, USA). […] The signal intensity (e.g., PARP-1 or γH2AX) of each lane was quantified and subsequently normalized to the respective loading control as indicated in the figure legends, which was analyzed in each experiment. […]

[13] = tested on: H2O2-induced PAR formation (PARP-1 activity) in HCT116 cells; experiment: PAR immunofluorescence: H2O2-induced PAR formation in HCT116 cells; assay type: cell-based, human; conditions: for IC50: Homo sapiens, HCT-116, 2 h pretreatment, 1 mM H2O2 5 min
Description: Cells lines were re-authenticated by p53, PARP-1, ATR, and BRCA2 immunoblotting, by their characteristic differential response to genotoxic agents and their typical cell morphology. HCT116, HCT116 BRCA2^−/−, DLD-1 ATR^+/+ and DLD-1 ATR^s/s cells were maintained in DMEM, whereas HCT116 PARP-1^+/+ and HCT116 PARP-1^−/− cells were maintained in RPMI1640 containing 10% FCS and 1% penicillin/streptomycin in a humidified atmosphere at 37 °C and 5% CO2. Caco-2 cells were cultured in MEM with 10% FCS, 1% penicillin/streptomycin, and nonessential amino acids. […] The media and supplements were obtained from PAN-Biotech (Aidenbach, Germany) and Thermo Fisher Scientific (Darmstadt, Germany). Cell culture was frequently tested for contamination with mycoplasma by PCR using the Venor® GeM Classic kit (Minerva Biolabs, Berlin, Germany) and immunofluorescence microscopy with nuclear staining. […] Cells were exposed for 1 h for the quantification of PARP-1 trapping or 2 h for assessing the inhibitory potential by confocal fluorescence microscopy. […] If the PARPi treatment was conducted in combination with cytostatic drugs for 24 h (γH2AX Western blot analysis) or 72 h (cytotoxicity testing), the PARPi was added 2 h prior.
The activity of potential PARP inhibitors was tested in a cell model using immunofluorescence-based detection of PAR essentially as reported previously. HCT116 cells were seeded in Ibidi 12-well chamber slides and cultivated until they reached 70% confluence. Induction of PARylation was achieved by adding 1 mM H2O2 in PBS/1 mM MgCl2 for 5 min at 37 °C. Cells were washed with PBS/1 mM MgCl2 and fixed by adding 4% PFA at RT. After 20 min, cells were washed with PBS/100 mM glycine for 1 min and permeabilized with PBS/0.3% Triton X-100 for 3 min. Blocking of the cells was conducted by adding PBS/0.05% Tween containing 5% powdered milk for 1 h at RT. […] Cells were washed and an Alexa488-coupled secondary antibody was added for 1 h at RT. The slides were mounted with VectaShield containing DAPI and analyzed by confocal microscopy using a Zeiss Axio Observer 7 microscope (Oberkochen, Germany) equipped with a 63× oil objective (Plan-Apochromat 63×/1.40 DIC M27) and a LSM900 confocal laser scanner (Zeiss, Oberkochen, Germany). Images were analyzed using Zeiss Zen software version 3.4 and ImageJ v1.53t (NIH, Bethesda, MD, USA). Briefly, nuclei were identified based on the DAPI signal and marked as regions of interest (ROI). Subsequently, the mean PAR signal in the identified ROI was quantified in each image and exported for further analysis. For the individual experiments, the mean PAR intensity was averaged for each treatment group and the control was set to 100%. Only images with a minimum of 4 cells were included in the analysis and at least 5 images were assessed per treatment group. The experiments were conducted in at least 3 biological replicates. To derive IC50 concentrations, relative PAR levels of the experiments were transferred to GraphPad Prism 9.0 Software (GraphPad Software Inc., Boston, MA, USA) for a nonlinear regression analysis applying a three-parameter model.

[14] = tested on: γH2AX formation in HCT116 BRCA2−/− cells; experiment: γH2AX Western blot in HCT116 BRCA2-/- cells; conditions: PARPi 50 µM, IT 0.25 µM 24 h
Description: as §3

[15] = molecular target: T1, PARP-1; experiment: chromatin retention assay (PARP-1 trapping) in HCT116 cells; conditions: HCT116, MMS 1 mM 1 h with inhibitor
Description: as §3

T1 sequence (P09874 whole entry): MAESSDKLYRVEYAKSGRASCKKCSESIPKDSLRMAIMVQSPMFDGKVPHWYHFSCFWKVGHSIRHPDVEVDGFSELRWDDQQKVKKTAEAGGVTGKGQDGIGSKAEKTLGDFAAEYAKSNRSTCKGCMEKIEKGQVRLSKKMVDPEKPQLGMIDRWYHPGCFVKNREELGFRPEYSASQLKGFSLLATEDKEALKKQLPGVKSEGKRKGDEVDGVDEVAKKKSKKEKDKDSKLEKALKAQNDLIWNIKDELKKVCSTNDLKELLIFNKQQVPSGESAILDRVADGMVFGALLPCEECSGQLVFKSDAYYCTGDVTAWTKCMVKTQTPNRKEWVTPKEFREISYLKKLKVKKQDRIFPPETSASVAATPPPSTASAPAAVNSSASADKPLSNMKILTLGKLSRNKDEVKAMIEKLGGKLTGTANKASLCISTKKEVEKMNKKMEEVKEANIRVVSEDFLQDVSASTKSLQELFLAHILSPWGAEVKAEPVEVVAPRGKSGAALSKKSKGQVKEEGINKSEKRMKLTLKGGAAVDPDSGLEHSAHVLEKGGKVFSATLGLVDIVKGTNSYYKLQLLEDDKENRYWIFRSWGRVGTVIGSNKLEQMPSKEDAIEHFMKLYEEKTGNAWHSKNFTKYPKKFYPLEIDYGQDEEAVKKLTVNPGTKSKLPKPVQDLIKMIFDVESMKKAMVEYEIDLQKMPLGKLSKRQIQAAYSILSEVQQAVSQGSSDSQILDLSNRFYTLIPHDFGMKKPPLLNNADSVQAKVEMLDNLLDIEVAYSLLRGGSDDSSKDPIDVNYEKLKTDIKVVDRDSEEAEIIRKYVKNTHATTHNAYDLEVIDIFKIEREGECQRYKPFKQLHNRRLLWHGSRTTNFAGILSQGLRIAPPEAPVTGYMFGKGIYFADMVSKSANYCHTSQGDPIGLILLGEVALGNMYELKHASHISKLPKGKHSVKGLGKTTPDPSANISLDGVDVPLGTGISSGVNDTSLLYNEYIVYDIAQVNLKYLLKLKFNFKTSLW

Compound: C[C@]1(c2nc3c(C(N)=O)cccc3[nH]2)CCCN1 [Veliparib, veliparib]
- cytotoxicity, monotreatment ([1]; HCT116 BRCA2−/−, 72 h): High cytotoxicity in the low micromolar concentration range
- IC50 [1]: 7.45 µM
- P-glycoprotein substrate [2]: are not excreted
- PARP-1 activity, % of the negative control ([3]; concentration of 5 nM): ~50%
- cell viability in combination with cytostatics [4]: significant decrease in cell viability compared to mono-treatment with cytostatics
- cell viability, monotreatment [4]: only mild cytotoxicity at the highest test concentration
- IC50 [4]: > 50 µM
- cell viability, monotreatment ([5]; 72 h): concentration-dependent decrease in viability in both cell models
- IC50 ([5]; 72 h, RRA): > 50 µM
- cell viability in combination with cytostatics [6]: did not sensitize to the anticancer drugs
- cell viability, monotreatment [6]: only mild cytotoxicity at the highest test concentration
- IC50 [6]: > 50 µM
- cell viability, monotreatment ([7]; Caco-2, 72 h): little cytotoxicity at the highest test concentration
- cytotoxicity of IT in combination with PARPi ([7]; Caco-2, IT 10 µM, not statistically significant): moderately increased the cytotoxicity of IT
- IC50 ([7]; 72 h, RRA): > 50 µM
- cell viability, monotreatment [8]: no effect on HCEC
- IC50 ([8]; RRA): > 50 µM
- cell viability, monotreatment ([9]; 72 h): concentration-dependent decrease in viability in both cell models
- IC50 ([9]; 72 h, RRA): > 50 µM

Compound: O=C(O)C1=NNC(=O)c2cccc3[nH]cc1c23 [X17613, 1-oxo-2,6-dihydro-1H-[1,2]diazepino [4,5,6-cd]indole-4-carboxylic acid]
- γH2AX, co-treatment with IT compared to IT mono-treatment ([10]; PARPi 50 µM 2 h prior, IT 0.25 µM 24 h): no significant further increase
- γH2AX, mono-treatment ([10]; X17613 50 µM or IT 0.25 µM, 24 h): No significant increase in γH2AX
- decrease of viability ([1]; HCT116 BRCA2−/−, highest test concentration of 50 µM, 72 h): about 25%
- cell viability in combination with chemotherapeutics ([1]; HCT116 BRCA2−/−, IT 0.25 µM, 5-FU 0.1 µM, OXA 0.25 µM, 72 h): significant reduction in viability in HCT116 BRCA2^−/− cells in combination with the established cytostatic drug IT
- IC50 ([1]; Homo sapiens, HCT-116, 72 h): > 50 µM
- cell viability, monotreatment ([11]; HCT116 WT, 72 h, up to 50 µM): no impact
- IC50 ([11]; Homo sapiens, HCT-116, 72 h, read-out: IC50-values HCT116 WT): > 50 µM
- PARP-1 trapping [12]: no effects were detected
- IC50 [3]: 41 nM
- IC50 ([3]; recombinant PARP-1, 1 h RT, n = 2): 41.3 nM
- cell viability, monotreatment ([4]; HCT116 PARP-1+/+, 72 h, up to 50 µM): Neither X17613 nor X17618 decreased cell viability
- cell viability in combination with cytostatics ([4]; HCT116 PARP-1+/+, IT 0.5 µM, 5-FU 0.25 µM, OXA 0.5 µM, 72 h, PARPi added 2 h prior): did not affect the cytotoxicity of the anticancer drugs
- IC50 ([4]; Homo sapiens, HCT-116, 72 h): > 50 µM
- IC50 ([13]; range over the three compounds, read-out: IC50 cellular PARP inhibition): 5 to 35 nM
- IC50 ([13]; unit inferred, read-out: IC50 PAR formation in HCT116 cells (Figure A3A)): 36 nM
- PAR signal ([13]; concentration of 100 nM, H2O2-induced): significant decrease in the PAR signal
- γH2AX, co-treatment with IT [14]: further augmented in the presence of X17613
- cell viability, monotreatment ([5]; 72 h): no effects
- IC50 ([5]; Homo sapiens, DLD-1, 72 h): > 50 µM
- cell viability, monotreatment ([6]; HCT116 PARP-1−/−, 72 h, up to 50 µM): Neither X17613 nor X17618 decreased cell viability
- cell viability in combination with cytostatics ([6]; HCT116 PARP-1−/−, IT 0.5 µM, 5-FU 0.25 µM, OXA 0.5 µM, 72 h, PARPi added 2 h prior): did not affect the cytotoxicity of the anticancer drugs
- IC50 ([6]; Homo sapiens, HCT-116, 72 h): > 50 µM
- cell viability, monotreatment ([7]; Caco-2, 72 h): little cytotoxicity at the highest test concentration
- sensitization towards the anticancer drugs ([7]; Caco-2, IT 10 µM, 5-FU 5 µM, OXA 1 µM): no sensitization towards the anticancer drugs
- IC50 ([7]; Homo sapiens, Caco-2, 72 h): > 50 µM
- IC50 ([8]; Homo sapiens, HCEC): > 50 µM
- cell viability, monotreatment [8]: no effect on HCEC
- chromatin-bound PARP-1 (PARP-1 trapping) [15]: No enrichment of PARP-1 in the chromatin fraction
- cell viability, monotreatment ([9]; 72 h): no effects
- IC50 ([9]; Homo sapiens, DLD-1, 72 h): > 50 µM
